Measured values: patent US6777412B2 (priority 1990, dated 2004)
Read-outs that look alike come from different tables or passages of the source. Marks after values point to notes of the source that are not given here.

What was measured:
Type in all cases: in vivo
[1] = system: Phytophthora infestans lycopersici
Plasmopara viticola = assay: Foliar fungal disease test on plants: Plasmopara viticola (Pv)
Procedure, shortened: (§1)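 Potted plants treated by foliar spray to maximum retention (100 ppm a.i. unless stated) plus root drench (~40 ppm a.i. in dry soil), with 0.05% Tween 20 on cereals, one or two days before spore-suspension inoculation.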

Cercospora arachidicola = assay: Foliar fungal disease test on plants: Cercospora arachidicola (Ca); details: 100 ppm active ingredient foliar spray plus root drench (approx. 40 ppm a.i. in dry soil), one or two days before inoculation
Protocol: (§2) The compounds were tested against a variety of foliar fungal diseases of plants. The technique employed was as follows.
(§3) The plants were grown in John Innes Potting Compost (No.1 or 2) in 4 cm diameter minipots. The test compounds were formulated either by bead milling with aqueous Dispersol T or as a solution in acetone or acetone/ethanol which was diluted to the required concentration immediately before use. For the foliage diseases, the formulations (100 ppm active ingredient except where otherwise indicated) were sprayed onto the foliage and applied to the roots of the plants in the soil. The sprays were applied to maximum retention and the root drenches to a final concentration equivalent to approximately 40 ppm a.i. in dry soil. Tween 20, to give a final concentration of 0.05%, was added when the sprays were applied to cereals.
(§4) For most of the tests the compound was applied to the soil (roots) and to the foliage (by spraying) one or two days before the plant was inoculated with the disease. An exception was the test on Erysiphe graminis in which the plants were inoculated 24 hours before treatment. Foliar pathogens were applied by spray as spore suspensions onto the leaves of test plants. After inoculation, the plants were put into an appropriate environment to allow infection to proceed and then incubated until the disease was ready for assessment. The period between inoculation and assessment varied from four to fourteen days according to the disease and environment.
(§5) The disease control vas recorded by the following grading:
(§6) 3=trace-5% of disease on untreated plants
(§7) 2=6-25% of disease on untreated plants
(§8) 1=26-59% of disease on untreated plants
(§9) 0=60-100% of disease on untreated plants
Ca Cercospora arachidicola

Erysiphe graminis hordei = assay: Foliar fungal disease test on plants: Erysiphe graminis hordei (Egh)
Puccinia recondita = assay: Foliar fungal disease test on plants: Puccinia recondita (Pr)
Procedure, shortened: as §1

Pyricularia oryzae = system: Pyricularia oryzae
Venturia inaequalis = assay: Foliar fungal disease test on plants: Venturia inaequalis (Vi)
Procedure, shortened: as §1

Septoria nodorum = assay: Foliar fungal disease test on plants: Septoria nodorum (Sn)
Procedure, shortened: as §1

Thanatephorus cucumeris = assay: Foliar fungal disease test on plants: Thanatephorus cucumeris (Tc)
Protocol: as §2, §3, §4, §5, §6, §7, §8, §9
Tc Thanatephorus cucumeris

[2] = system: Erysiphe graminis tritici; assay: Foliar fungal disease test on plants: Erysiphe graminis tritici (Egt)
Procedure, shortened: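 Formulations (100 ppm a.i. unless stated, 0.05% Tween 20 on cereals) sprayed to foliage plus root drench (~40 ppm a.i. in dry soil), 24 h after spore-suspension spray inoculation.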

[3] = 100 ppm active ingredient foliar spray plus root drench (approx. 40 ppm a.i. in dry soil), one or two days before inoculation
[4] = 100 ppm active ingredient foliar spray plus root drench (approx. 40 ppm a.i. in dry soil), plants inoculated 24 hours before treatment

| SMILES | disease control grading, Pil (Phytophthora infestans lycopersici) [1, 3] | disease control grading, Pv (Plasmopara viticola) (Plasmopara viticola; [3]) | disease control grading, Ca (Cercospora arachidicola) (Cercospora arachidicola) | disease control grading, Egh (Erysiphe graminis hordei) (Erysiphe graminis hordei; [4]) | disease control grading, Pr (Puccinia recondita) (Puccinia recondita; [3]) | disease control grading, Po (Pyricularia oryzae) (Pyricularia oryzae; [3]) | disease control grading, Vi (Venturia inaegualis) (Venturia inaequalis; [3]) | disease control grading, Sn (Septoria nodorum) (Septoria nodorum; [3]) | disease control grading, Tc (Thanatephorus cucumeris) (Thanatephorus cucumeris; [3]) | disease control grading, Egt (Erysiphe graminis tritici) [2, 4] | disease control grading, Pil (Phytophthora infestans lycopersici) ([1]; 10 ppm foliar application only) | disease control grading, Pv (Plasmopara viticola) (Plasmopara viticola; 10 ppm foliar application only) | disease control grading, Egh (Erysiphe graminis hordei) (Erysiphe graminis hordei; 10 ppm foliar application only) | disease control grading, Sn (Septoria nodorum) (Septoria nodorum; 10 ppm foliar application only) | disease control grading, Tc (Thanatephorus cucumeris) (Thanatephorus cucumeris; 10 ppm foliar application only) | disease control grading, Pr (Puccinia recondita) (Puccinia recondita; 10 ppm foliar application only) | disease control grading, Po (Pyricularia oryzae) (Pyricularia oryzae; 10 ppm foliar application only) | disease control grading, Vi (Venturia inaegualis) (Venturia inaequalis; 10 ppm foliar application only) | disease control grading, Egt (Erysiphe graminis tritici) ([2]; 10 ppm foliar application only) |
| --- | --- | --- | --- | --- | --- | --- | --- | --- | --- | --- | --- | --- | --- | --- | --- | --- | --- | --- | --- |
| CO/C=C(/C(=O)OC)c1ccccc1Oc1cc(Nc2ccccc2)ncn1 [4 of Table I] | 3 (3=trace-5% of disease on untreated plants) | 4 (4=no disease) | 4 (4=no disease) | 4 (4=no disease) | 4 (4=no disease) | 3 (3=trace-5% of disease on untreated plants) | 4 (4=no disease) |  |  |  |  |  |  |  |  |  |  |  |  |
| CO/C=C(/C(=O)OC)c1ccccc1Oc1cc(OCc2ccccc2)ncn1 [23 of Table I] |  | 4 (4=no disease) | 4 (4=no disease) | 4 (4=no disease) | 4 (4=no disease) | 4 (4=no disease) | 4 (4=no disease) |  |  |  |  |  |  |  |  |  |  |  |  |
| CO/C=C(/C(=O)OC)c1ccccc1Oc1cc(-c2ccccc2)ncn1 [180 of Table I] |  | 4 (4=no disease) | 4 (4=no disease) | 4 (4=no disease) | 4 (4=no disease) |  | 4 (4=no disease) |  |  |  |  |  |  |  |  |  |  |  |  |
| CO/C=C(/C(=O)OC)c1ccccc1Oc1cc(OCc2ccco2)ncn1 [320 of Table I] | 4 (4=no disease) | 4 (4=no disease) |  |  | 4 (4=no disease) | 3 (3=trace-5% of disease on untreated plants) | 4 (4=no disease) | 4 (4=no disease) | 4 (4=no disease) | 4 (4=no disease) |  |  |  |  |  |  |  |  |  |
| CO/C=C(/C(=O)OC)c1ccccc1Oc1cc(S(=O)(=O)c2ccccn2)ncn1 [356 of Table I] | 0 (0=60-100% of disease on untreated plants) | 4 (4=no disease) | 3 (3=trace-5% of disease on untreated plants) | 0 (0=60-100% of disease on untreated plants) | 1 (1=26-59% of disease on untreated plants) |  | 4 (4=no disease) |  |  |  |  |  |  |  |  |  |  |  |  |
| CO/C=C(/C(=O)OC)c1ccccc1Oc1cc(OCCc2ccc(C#N)cc2)ncn1 [359 of Table I] | 4 (4=no disease) | 4 (4=no disease) | 4 (4=no disease) | 4 (4=no disease) | 4 (4=no disease) |  |  |  |  |  |  |  |  |  |  |  |  |  |  |
| CO/C=C(/C(=O)OC)c1ccccc1Oc1cc(OCCSc2ccccc2)ncn1 [391 of Table I] | 4 (4=no disease) | 4 (4=no disease) |  | 4 (4=no disease) | 4 (4=no disease) | 3 (3=trace-5% of disease on untreated plants) | 4 (4=no disease) | 4 (4=no disease) | 4 (4=no disease) |  |  |  |  |  |  |  |  |  |  |
| CO/C=C(/C(=O)OC)c1ccccc1Oc1cc(N(C=O)c2ccccc2O)ncn1 [392 of Table I] |  |  |  |  |  |  |  |  |  |  | 0^a (0=60-100% of disease on untreated plants) | 0^a (0=60-100% of disease on untreated plants) | 0^a (0=60-100% of disease on untreated plants) | 1^a (1=26-59% of disease on untreated plants) | 0^a (0=60-100% of disease on untreated plants) | 0^a (0=60-100% of disease on untreated plants) | 0^a (0=60-100% of disease on untreated plants) | 0^a (0=60-100% of disease on untreated plants) |  |
| CO/C=C(/C(=O)OC)c1ccccc1Oc1cc(OCCSc2ccccc2C#N)ncn1 [393 of Table I] | 4 (4=no disease) | 4 (4=no disease) |  | 4 (4=no disease) | 4 (4=no disease) | 4 (4=no disease) | 0 (0=60-100% of disease on untreated plants) | 4 (4=no disease) | 4 (4=no disease) |  |  |  |  |  |  |  |  |  |  |
| CO/C=C(/C(=O)OC)c1ccccc1Oc1cc(OCc2cccs2)ncn1 [394 of Table I] | 4 (4=no disease) | 4 (4=no disease) |  |  | 4 (4=no disease) | 3 (3=trace-5% of disease on untreated plants) | 4 (4=no disease) | 4 (4=no disease) | 4 (4=no disease) | 4 (4=no disease) |  |  |  |  |  |  |  |  |  |
| CO/C=C(/C(=O)OC)c1ccccc1Oc1cc(O/N=C(/N)c2cccc(C(F)(F)F)c2)ncn1 [406 of Table I] | 0 (0=60-100% of disease on untreated plants) | 4 (4=no disease) |  |  | 0 (0=60-100% of disease on untreated plants) | 0 (0=60-100% of disease on untreated plants) | 1 (1=26-59% of disease on untreated plants) | 0 (0=60-100% of disease on untreated plants) | 0 (0=60-100% of disease on untreated plants) | 1 (1=26-59% of disease on untreated plants) |  |  |  |  |  |  |  |  |  |
| CO/C=C(/C(=O)OC)c1ccccc1Oc1cc(O/N=C(\C)c2ccc[nH]2)ncn1 [407 of Table I] |  |  |  |  |  |  |  |  |  |  | 0^a (0=60-100% of disease on untreated plants) | 4^a (4=no disease) |  | 0^a (0=60-100% of disease on untreated plants) | 0^a (0=60-100% of disease on untreated plants) | 0^a (0=60-100% of disease on untreated plants) | 1^a (1=26-59% of disease on untreated plants) | 3^a (3=trace-5% of disease on untreated plants) | 1^a (1=26-59% of disease on untreated plants) |
